Patent US12043652B2, “Engineered extracellular receptor constructs and uses thereof” (TRUSTEES OF BOSTON UNIVERSITY, priority 2020, dated 2024)
Entries after “also recorded” stand apart in the source; their conditions may differ.

Key:
Type in all cases: cell-based
[1] = tested on: BCL-xL-BH3(G22)-Gal4-VP64 sensor; assay: BCL-xL-BH3(G22)-Gal4-VP64 sensor: ICD driven H2B-mCherry reporter expression
Description: FIG. 3 Activity of BCL-xL-BH3(G22)-Gal4-VP64 upon presence of BCL-xL inhibitors. BCL-xL serves as a ligand binding domain and BH3(G22) serves as an intramolecular peptide. […] H2B mCherry expression is visualized via microscopy. A fluorescent transfection marker is also shown to verify the presence of cells as a smaller corresponding image. Images were taken 48 hours after transfection and drug addition. Scale bar 50 μm.
(§1) Upon addition of inducer and either gamma secretase inhibitor, H2B-mCherry signal is ablated. Images are taken 24 hours after transfection and drug addition. A fluorescent transfection marker is shown as a smaller corresponding image. […] Scale bar 50 μm.
The inventors next applied this methodology to a completely different LBD and peptide pair, BCL-xL and the BH3(G22) peptide, while keeping the ICD the same.

γ-secretase = assay: Gamma secretase dependence of two sensors (H2B-mCherry reporter with inducer plus gamma secretase inhibitor); conditions: dNS3-(EDVVCC) and BCL-xL-BH3(G22) sensors, inducer grazoprevir 3 μM or ABT-737 3 μM, DAPT 5 μM, Compound E 1 μM, 24 hours
Description: FIG. 4 Gamma secretase dependence of two distinct sensors. dNS3-(EDVVCC (SEQ ID NO: 57))-TMD-Gal4-VP64 and BCL-xL-BH3(G22)-TMD-Gal4-VP64 sensors were tested for gamma secretase dependence via the addition of gamma secretase inhibitors DAPT and Compound E (Cpd E). […] Upon addition of inducer and either gamma secretase inhibitor, H2B-mCherry signal is ablated. Images are taken 24 hours after transfection and drug addition. A fluorescent transfection marker is shown as a smaller corresponding image. Drug concentrations are as follows: NS3 inducer, grazoprevir 3 μM; BCL-xL inducer, ABT-737 3 μM; DAPT 5 μM; Compound E 1 μM. Scale bar 50 μm.
To probe into the mechanism of activation for the antiviral drug sensors and ABT-737 sensor, the inventors next inhibited γ-secretase with selective inhibitors, DAPT and compound E. Upon inhibition with either of these compounds, ICD driven activation of H2B-mCherry was inhibited (FIG. 4). Inhibition also occurred despite the presence of each associated sensor inducer, indicating γ-secretase plays a crucial role in MIMOsensor activation and is required for ICD release.

[2] = target: T1, catalytically inactive NS3 protease (NS3^S139A, dNS3) sensor (Hepatitis C virus genotype 1a, UniProt P27958, S1165A); conditions: drug grazoprevir; histograms of H2B-mCherry, flow cytometry, 48 hours post-drug addition
T1 construct: transmembrane domain with γ-secretase cleavage site (TMD) (internal); Gal4-VP64 intracellular domain (C); expressed in transfected cells
Description: FIGS. 2A-2B. (FIG. 2A) Schematic of antiviral drug sensor which is designed to sense Hepatitis C Virus NS3 inhibitors. (FIG. 2B) Two sensors with varying sensitivity to antiviral drug based on the affinity of their intramolecular peptide. Activity of the sensor is shown as histograms of intracellular domain driven H2B-mCherry expression in clonal cell lines, measured by flow cytometry, 48 hours post-drug addition. […] Red arrows are drawn to highlight differences in sensitivity to ligand. Drug is grazoprevir or delivery vehicle control, DMSO.
as §1
For proof of concept, the ICD chosen was a synthetic transcription factor, Gal4-VP64, which activates UAS promoter driven H2B-mCherry gene expression. […] The substitution of the high affinity peptide for low affinity peptide appears to increase the sensitivity of the sensor, consistent with the theory of competitive displacement kinetics.

T1 sequence (P27958 1027-1208 S1165A): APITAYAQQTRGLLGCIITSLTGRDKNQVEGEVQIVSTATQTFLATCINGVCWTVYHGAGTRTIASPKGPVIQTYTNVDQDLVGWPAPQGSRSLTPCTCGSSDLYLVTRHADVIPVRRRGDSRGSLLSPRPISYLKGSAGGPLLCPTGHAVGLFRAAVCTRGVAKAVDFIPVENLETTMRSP

| Compound | ICD driven activation of H2B-mCherry in presence of sensor inducer (γ-secretase) | sensitivity of the sensor to antiviral drug, by intramolecular peptide [2] | also measured |
| --- | --- | --- | --- |
| CN(C)CC[C@H](CSc1ccccc1)Nc1ccc(S(=O)(=O)NC(=O)c2ccc(N3CCN(Cc4ccccc4-c4ccc(Cl)cc4)CC3)cc2)cc1[N+](=O)[O-] [ABT-737] | – | – | ICD driven H2B-mCherry expression ([1]; BCL-xL-BH3(G22)-TMD-Gal4-VP64 sensor, ABT-737 3 μM, images 24 hours after transfection and drug addition): activates ICD driven H2B-mCherry expression; activation of H2B-mCherry (sensor response to drug) ([1]; microscopy, 48 hours after transfection and drug addition): concentration dependent activation |
| C[C@H](NC(=O)Cc1cc(F)cc(F)c1)C(=O)N[C@H]1N=C(c2ccccc2)c2ccccc2N(C)C1=O [Compound E] | ablated | – | ICD driven activation of H2B-mCherry in presence of sensor inducer (γ-secretase; listed as compound E): inhibited |
| C[C@H](NC(=O)Cc1cc(F)cc(F)c1)C(=O)N[C@H](C(=O)OC(C)(C)C)c1ccccc1 [DAPT] | inhibited; also recorded: ablated | – | – |
| DEEMEEC | – | high sensitivity | – |
| GELDELVYLLDGPGYDPIHS [CP5-46A-4D5E] | – | intermediate sensitivity | – |
